PMC3883354 (Bioorganic & medicinal chemistry, 2013)
Like-named read-outs stand apart in the source and are kept apart here.

Columns and labels:
[1] = target: T1, human GVIA iPLA2 (Homo sapiens, UniProt O60733); settings: cited from earlier work
T1 sequence (O60733 1-806): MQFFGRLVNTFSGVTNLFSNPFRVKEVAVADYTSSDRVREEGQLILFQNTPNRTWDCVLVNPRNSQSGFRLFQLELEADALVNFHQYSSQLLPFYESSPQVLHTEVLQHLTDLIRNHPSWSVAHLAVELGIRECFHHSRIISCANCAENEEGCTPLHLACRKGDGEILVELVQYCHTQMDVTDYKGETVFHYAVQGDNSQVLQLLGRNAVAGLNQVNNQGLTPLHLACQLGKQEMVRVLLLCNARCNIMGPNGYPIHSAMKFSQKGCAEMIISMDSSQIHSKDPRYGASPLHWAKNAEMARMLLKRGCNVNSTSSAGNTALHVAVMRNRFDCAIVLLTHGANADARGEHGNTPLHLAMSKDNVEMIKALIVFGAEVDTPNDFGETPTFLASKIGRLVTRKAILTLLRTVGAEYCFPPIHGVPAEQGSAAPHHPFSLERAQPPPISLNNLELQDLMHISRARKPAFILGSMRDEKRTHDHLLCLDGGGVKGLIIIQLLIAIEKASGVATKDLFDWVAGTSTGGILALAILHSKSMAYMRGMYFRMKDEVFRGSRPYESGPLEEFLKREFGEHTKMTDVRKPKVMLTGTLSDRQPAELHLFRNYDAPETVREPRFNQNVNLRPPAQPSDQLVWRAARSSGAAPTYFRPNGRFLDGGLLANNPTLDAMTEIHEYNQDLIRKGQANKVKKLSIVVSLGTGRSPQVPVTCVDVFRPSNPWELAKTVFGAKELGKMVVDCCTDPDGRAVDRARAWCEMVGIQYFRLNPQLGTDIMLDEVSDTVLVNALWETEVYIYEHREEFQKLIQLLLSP

[2] = target: T2, human GIVA cPLA2 (Homo sapiens, UniProt P47712); settings: 0.091 mole fraction inhibitor; cited from earlier work
T2 sequence (P47712 1-749): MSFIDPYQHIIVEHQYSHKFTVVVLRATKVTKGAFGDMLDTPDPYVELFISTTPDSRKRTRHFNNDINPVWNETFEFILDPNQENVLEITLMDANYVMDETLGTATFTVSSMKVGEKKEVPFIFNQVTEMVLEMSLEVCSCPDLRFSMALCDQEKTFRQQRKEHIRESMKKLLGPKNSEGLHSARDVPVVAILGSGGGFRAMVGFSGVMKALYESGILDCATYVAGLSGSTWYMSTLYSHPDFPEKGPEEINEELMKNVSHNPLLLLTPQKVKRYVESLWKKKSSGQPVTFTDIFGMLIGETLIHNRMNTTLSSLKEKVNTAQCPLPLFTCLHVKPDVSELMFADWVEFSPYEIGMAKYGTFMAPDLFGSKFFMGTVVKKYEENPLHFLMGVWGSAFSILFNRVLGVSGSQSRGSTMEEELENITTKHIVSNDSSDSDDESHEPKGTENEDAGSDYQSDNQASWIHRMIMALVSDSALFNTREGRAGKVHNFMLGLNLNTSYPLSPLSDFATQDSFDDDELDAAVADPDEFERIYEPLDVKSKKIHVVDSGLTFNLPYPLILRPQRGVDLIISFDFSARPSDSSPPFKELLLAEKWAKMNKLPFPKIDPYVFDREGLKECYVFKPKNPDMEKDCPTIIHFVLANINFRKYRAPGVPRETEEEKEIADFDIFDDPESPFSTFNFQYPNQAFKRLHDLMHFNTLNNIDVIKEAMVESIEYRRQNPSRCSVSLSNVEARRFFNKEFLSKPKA

[3] = target: T3, human GV sPLA2 (Homo sapiens, UniProt P39877); settings: 0.091 mole fraction inhibitor; cited from earlier work
T3 sequence (P39877 21-138): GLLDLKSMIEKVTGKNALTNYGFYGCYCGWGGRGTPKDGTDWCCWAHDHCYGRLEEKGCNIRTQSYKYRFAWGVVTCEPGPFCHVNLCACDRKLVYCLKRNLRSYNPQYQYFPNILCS

[4] = target: T2, human GIVA cPLA2; assay: mixed micelle-based modified Dole assay, GIVA cPLA2 inhibition; type: biochemical; settings: 0.091 mole fraction inhibitor in mixed micelles; n = 3; listed as GK187
[5] = target: T3, human GV sPLA2; assay: mixed micelle-based modified Dole assay, GV sPLA2 inhibition; type: biochemical; settings: 0.091 mole fraction inhibitor in mixed micelles; n = 3

O=C(CCCCc1ccccc1)C(F)(F)C(F)(F)F [FKGK11]
GVIA iPLA2 % Inhibition at 0.091 ([1]; 0.091 mole fraction inhibitor): 99.4%
GVIA iPLA2 XI(50) ([1]; mole fraction of inhibitor for 50% inhibition): 0.0014 ± 0.0001 mole fraction
GIVA cPLA2 % Inhibition at 0.091 [2]: N.D. (N.D. signifies compounds with less than 25% inhibition (or no detectable inhibition))
GV sPLA2 % Inhibition at 0.091 [3]: 28.0%

COc1ccc(CCCCC(=O)C(F)(F)C(F)(F)F)cc1 [6d, 1,1,1,2,2-Pentafluoro-7-(4-methoxyphenyl)heptan-3-one]
GIVA cPLA2 % Inhibition at 0.091 [4]: no significant inhibition
GV sPLA2 % Inhibition at 0.091 [5]: no significant inhibition
